system: norovirus VLPs (GII.4, GII.3, GII.17); test: In vitro selection by cDNA display against VLPs with appearance frequency analysis of sequences; details: count among peptide aptamer sequences obtained after in vitro selection cycles (7 cycles GII.4, 5 cycles GII.3 and GII.17)
Method: The constructed cDNA display and VLPs were incubated in 100 μL of a dialysis selection buffer (20 mM HEPES (pH 7.4), 150 mM NaCl, and 0.05% s Tween 20) at the concentrations shown in Table 9 below at 25° C. for 30 minutes. Subsequently, the resultant was diluted to 1 mL with the dialysis selection buffer, and was put in Float-A-Lyzer G2 Dialysis Device CE, 1000kD MWCO (manufactured by Spectrum Laboratories, Inc.) and was dialyzed with 1 L of the dialysis selection buffer as the external solution at 25° C. During the dialysis, the external solution was replaced with new one 3 times every 2 hours, and the dialysis was performed overnight (for 8 hours) after the 4th replacement. The dialysis product was concentrated with Amicon Ultra 100K (manufactured by Merck Millipore S.A.S.) at 14,000×g for 5 minutes.
To an immunoplate (C-BOTTOM, CLEAR, MICROLON (registered trademark), HIGH BINDING, manufactured by Greiner Bio-One), 100 μL of 3 μg/mL GII.3 or GII.17 VLP solution was added and immobilization was performed at 4° C. overnight. Subsequently, the solution was discarded, and 200 μL of a blocking agent (EMD Millipore™ Blok™ NSB Blocking agents, Thermo Fisher Scientific) was added, followed by gently stirring at room temperature for 2 hours for blocking. On this occasion, wells not immobilizing the VLP were also subjected to similar blocking to be used in preselection.
The solution was discarded from the wells, the wells were washed with 200 μL of a wash buffer (10 mM Hepes (pH 7.4), 150 mM NaCl, and 0.05% Tween 20) three times, and 100 μL of cDNA display (constructed from 1.5 pmol of mRNA-linker) was then put in the wells not immobilizing the VLP, followed by gently stirring at room temperature for 30 minutes to perform preselection. Subsequently, the supernatant containing cDNA display that had not bound to the blocking agent was put in the wells immobilizing the VLP, followed by gently stirring at room temperature for 30 minutes to be bound to the VLP. The supernatant was discarded, washing with 100 μL of the wash buffer was performed four times, and 100 μL of a 5′ SDS solution was then added, followed by incubation at 50° C. for 15 minutes to elute the bound cDNA display.
Subsequently, the VLP-cDNA display complex obtained above was diluted to 100 μL with a dialysis selection buffer, and 10 μL of a coprecipitating agent (Quick-Precip Plus Solution, manufactured by EdgeBio) and 220 μL of 100% ethanol were added, followed by centrifugation at 20,000×g for 5 minutes. Subsequently, the supernatant was discarded, and 1 mL of 70, ethanol was added for rinsing. […] The PCR program was (a) 98° C. for 2 minutes, (b) 95° C. for 20 seconds, (c) 69° C. for 20 seconds, (d) 72° C. for 20 seconds (steps (b) to (d) were performed 25 cycles), and (e) 72° C. for 1 minute.
After the in vitro selection cycle (7 cycles for GII.4 and 5 cycles for GII.3 and GII.17 based on the libraries of 7 cycles obtained by GII.4 dialysis), a sequence library was prepared by the following method, and the sequence information was analyzed. The preparation of the sequence library and the sequencing were performed according to the 16S Metagenomic Sequencing Library Preparation protocol (manufactured by Illumina, Inc.).
The Fastq file of the obtained sequence was converted to a Fasta file, all of the obtained sequences were simultaneously translated from the first base of the start codon (ATG) at position 115 to the third base of the cysteine codon (TGC) at position 156 of the library sequence (SEQ ID NO: 279) using software MEGA.

“226 (QCELKD; Designed peptide) [compound 226]” and “177 (FTQDAV; Designed peptide) [compound 177]” are the same in “Appearance Frequency” value: 6 for the first, 6 for the second.

Compared with “31 (HIPSRH; Designed peptide) [compound 31]”, “9 (GEHAHS; Designed peptide) [compound 9]” is higher in “Appearance Frequency” value: 11 for the first, 15 for the second.

Going from “74 (FPYARN; Designed peptide) [compound 74]” to “254 (STEFAR; Designed peptide) [compound 254]”, the “Appearance Frequency” value falls from 8 to 6.

First: 49 (VETDGH; Designed peptide) [compound 49]
Second: 189 (HHNAPI; Designed peptide) [compound 189]
The “Appearance Frequency” value of the first is higher: 10 for the first, 6 for the second.

Going from “168 (DKVCKN; Designed peptide) [compound 168]” to “3 (GHRLHS; Designed peptide) [compound 3]”, the “Appearance Frequency” value rises from 6 to 21.

Compared with “47 (TTSHFK; Designed peptide) [compound 47]”, “236 (RIVLES; Designed peptide) [compound 236]” is lower in “Appearance Frequency” value: 10 for the first, 6 for the second.

“238 (RLHQCR; Designed peptide) [compound 238]” and “259 (VGMHHS; Designed peptide) [compound 259]” are the same in “Appearance Frequency” value: 6 for the first, 6 for the second.

Compared with “20 (DYVFCG; Designed peptide) [compound 20]”, “180 (GFGQWI; Designed peptide) [compound 180]” is lower in “Appearance Frequency” value: 12 for the first, 6 for the second.

Going from “196 (HVGLDK; Designed peptide) [compound 196]” to “117 (HHYRGL; Designed peptide) [compound 117]”, the “Appearance Frequency” value rises from 6 to 7.

Compared with “222 (NSIAHR; Designed peptide) [compound 222]”, “109 (GCHYQF; Designed peptide) [compound 109]” is higher in “Appearance Frequency” value: 6 for the first, 7 for the second.

First: 241 (RSSAKR; Designed peptide) [compound 241]
Second: 62 (RALAKR; Designed peptide) [compound 62]
The “Appearance Frequency” value of the first is lower: 6 for the first, 9 for the second.

“242 (RTISGS; Designed peptide) [compound 242]” and “229 (QVIQRL; Designed peptide) [compound 229]” are the same in “Appearance Frequency” value: 6 for the first, 6 for the second.

“68 (SSPRSH; Designed peptide) [compound 68]” and “53 (ACRSAF; Designed peptide) [compound 53]” are the same in “Appearance Frequency” value: 9 for the first, 9 for the second.

Going from “64 (RKLFRN; Designed peptide) [compound 64]” to “211 (LTALSV; Designed peptide) [compound 211]”, the “Appearance Frequency” value falls from 9 to 6.

Going from “92 (TGHIVW; Designed peptide) [compound 92]” to “231 (RGGRTL; Designed peptide) [compound 231]”, the “Appearance Frequency” value falls from 8 to 6.

First: 99 (VYIMNH; Designed peptide) [compound 99]
Second: 182 (GLLIPF; Designed peptide) [compound 182]
The “Appearance Frequency” value of the first is higher: 8 for the first, 6 for the second.

First: 2 (CLSNLA; Designed peptide) [compound 2]
Second: 102 (AFTSHW; Designed peptide) [compound 102]
The “Appearance Frequency” value of the first is higher: 21 for the first, 7 for the second.

Compared with “268 (YRSNHG; Designed peptide) [compound 268]”, “8 (PCSYFS; Designed peptide) [compound 8]” is higher in “Appearance Frequency” value: 6 for the first, 17 for the second.

Compared with “25 (NLYDRF; Designed peptide) [compound 25]”, “44 (QSSKKF; Designed peptide) [compound 44]” is lower in “Appearance Frequency” value: 12 for the first, 10 for the second.

First: 1 (GRRYYI; Designed peptide) [compound 1]
Second: 261 (VPFPHH; Designed peptide) [compound 261]
The “Appearance Frequency” value of the first is higher: 23 for the first, 6 for the second.

Going from “156 (VRNLVH; Designed peptide) [compound 156]” to “243 (RTLLVQ; Designed peptide) [compound 243]”, the “Appearance Frequency” value falls from 7 to 6.

Compared with “224 (PDRFCA; Designed peptide) [compound 224]”, “34 (SVHTHR; Designed peptide) [compound 34]” is higher in “Appearance Frequency” value: 6 for the first, 11 for the second.

Going from “26 (TWDLTL; Designed peptide) [compound 26]” to “197 (HWLRSV; Designed peptide) [compound 197]”, the “Appearance Frequency” value falls from 12 to 6.

Compared with “104 (DRVQSR; Designed peptide) [compound 104]”, “227 (QFSQLG; Designed peptide) [compound 227]” is lower in “Appearance Frequency” value: 7 for the first, 6 for the second.

Going from “46 (RVSLYD; Designed peptide) [compound 46]” to “203 (ITLIDT; Designed peptide) [compound 203]”, the “Appearance Frequency” value falls from 10 to 6.

“154 (TVLHHR; Designed peptide) [compound 154]” and “118 (HSSFSS; Designed peptide) [compound 118]” are the same in “Appearance Frequency” value: 7 for the first, 7 for the second.

First: 24 (LRSGVN; Designed peptide) [compound 24]
Second: 71 (CNLIAK; Designed peptide) [compound 71]
The “Appearance Frequency” value of the first is higher: 12 for the first, 8 for the second.

First: 65 (SGTMQE; Designed peptide) [compound 65]
Second: 155 (VMVGPS; Designed peptide) [compound 155]
The “Appearance Frequency” value of the first is higher: 9 for the first, 7 for the second.

First: 13 (SVQSWK; Designed peptide) [compound 13]
Second: 198 (HYRARY; Designed peptide) [compound 198]
The “Appearance Frequency” value of the first is higher: 15 for the first, 6 for the second.

“138 (QLHRHK; Designed peptide) [compound 138]” and “139 (RFLMRH; Designed peptide) [compound 139]” are the same in “Appearance Frequency” value: 7 for the first, 7 for the second.

Going from “7 (GWHETE; Designed peptide) [compound 7]” to “132 (NHDVRF; Designed peptide) [compound 132]”, the “Appearance Frequency” value falls from 17 to 7.

Going from “19 (CTYVVE; Designed peptide) [compound 19]” to “56 (HRRGPS; Designed peptide) [compound 56]”, the “Appearance Frequency” value falls from 12 to 9.

First: 204 (KACAHL; Designed peptide) [compound 204]
Second: 79 (GWYFHA; Designed peptide) [compound 79]
The “Appearance Frequency” value of the first is lower: 6 for the first, 8 for the second.

Source: patent US20220221458A1, “NOROVIRUS-BINDING PEPTIDE” (Kao Corporation, priority 2019, published 2022)
